Laboratory results published in patent US8993320B2, “Culture method to obtain and maintain a pure or enriched population of mammalian neural stem cells and/or neural/progenitor cells that are prone to differentiate into oligodendrocyte-lineage cells in vitro” (priority 2011, dated 2015).

Tests used:
Type in all cases: cell-based, human
HFSC cells [1] = assay: Expansion of HFSC cells with growth factors and supplements (live cell count); conditions: for concentration at which expansion rate / response is saturated: established cell line #2b; for effect on expansion rate: either 50 μM 1-thioglycerol added or PDGF-AA increased to 100 ng/ml (not both), with 10 ng/ml bFGF+10 ng/ml IGF-1, passage 5; for effect on cell status (vacuoles, cell number): supplement to DMEM/F12 with glutamine, pyruvate, B27, 1% NEAA, 1 mM N-acetyl-cysteine, 55 μM β-mercaptoethanol, data not shown
Protocol: FIG. 4 illustrates the expansion rate of HFSC cells (cell line #2b) in the presence of different combinations of growth factors: (1): 20 ng/ml PDGF-AA+10 ng/ml bFGF; (2): 20 ng/ml PDGF-AA+10 ng/ml bFGF+5 ng/ml NT-3; (3): 20 ng/ml PDGF-AA+10 ng/ml bFGF+10 ng/ml IGF-1; (4): 20 ng/ml PDGF-AA+10 ng/ml bFGF+5 ng/ml NT-3+10 ng/ml IGF-1. The cells were harvested at day 11 of passage 3 (P3D11) and number of live cells in each condition was counted. Then, they were passaged in the same condition that was used at passage 3 at the same cell density. The cells were harvested at day 8 of passage 4 (P4D8) and number of live cells in each condition was counted (these cells were harvested before they became sub-confluent because they started forming spheres). […] Condition (3) was effective at both passages. FIG. 5 illustrates the effects of high dose of PDGF-AA (100 ng/ml) and 1-thioglycerol on the proliferation of HFSC cells (cell line #2b); cultured in HFSCM1 medium in the presence of the following combinations of growth factors: (1): 20 ng/ml PDGF-AA+10 ng/ml bFGF+10 ng/ml IGF-1; (2): 20 ng/ml PDGF-AA+10 ng/ml bFGF+10 ng/ml IGF-1+50 μM 1-thioglycerol; (3): 100 ng/ml PDGF-AA+10 ng/ml bFGF+10 ng/ml IGF-1; (4): 100 ng/ml PDGF-AA+10 ng/ml bFGF+10 ng/ml IGF-1+50 μM 1-thioglycerol; (5): 100 ng/ml PDGF-AA+10 ng/ml bFGF+50 μM 1-thioglycerol. The cells were harvested at day 7 of passage 5 (these cells were harvested before they became sub-confluent because they started forming spheres as they did at passage 4) and number of live cells in each condition was counted. The combination of 20 ng/ml PDGF-AA+10 ng/ml bFGF was also tested, but the recovered cell number was too low to evaluate (less than 1×10^4 cells which was under the countable range) and its data was eliminated from this figure. The condition (1) could expand cells at passage 3 but couldn't expand cells at passage 5. […] When the addition of 50 μM 1-thioglycerol and the increase of PDGF-AA concentration to 100 ng/ml were combined [condition (4)], the cell expansion rate improved dramatically and the cells could be expanded successfully. […] The cell “expansion rate” refers to the cell number on a particular date divided by the initial cell number at the start of culture. Human 15-week fetal spinal cord was dissected from the spinal column, with the meninges and peripheral nerves removed. The tissue then was dissociated with Accutase and washed and cells obtained from human fetal spinal cord were placed in a culture vessel containing the following growth medium: DMEM/F12 containing 2.5 mM glutamine and 15 mM HEPES, 2% B27 supplement (Invitrogen™), 1% NEAA, 1.5 mM pyruvate (Invitrogen™), 55 μM β-mercaptoethanol (Invitrogen™), 1 mM N-acetyl-L-cysteine (Sigma-Aldrich™), 20 ng/ml PDGF-AA (R&D SYSTEMS™, Inc., Minneapolis, Minn., USA) and 10 ng/ml bFGF (R&D SYSTEMS™). Cells were then placed in an incubator maintained at 37° C., 5% O2, and 5% CO2. bFGF (10 ng/ml) was added daily to the culture medium. Medium was changed every 2-3 days during passage. Based on the preliminary experiments, growing cells were not so many in the presence of PDGF-AA and bFGF and many cells stopped proliferating or died within a few weeks. […] To remove cells that are not responsive to PDGF-AA and bFGF, cells were cultured in an ultra-low adhesion culture plate ([…] Inc., Corning, N.Y., USA). […] Spheres were collected at lower speed of centrifugation (300 rpm for collecting spheres vs. 1,000 rpm for collecting single cells) for medium change and passaging. After 9 days, cells were harvested and passaged onto poly-ornithine-coated culture vessels. After this period, cells were passaged every 7-14 days. […] In addition, the cells began to appear unhealthy, forming vacuoles in their cytoplasm. As mentioned in Example 1, inclusion of PDGF-AA and bFGF in the culture medium supported adequate growth of the HFSC cells initially, but the proliferation rate slowed after 2 passages. […]

HFSC cells [2] = assay: as above; conditions: higher concentration of IGF-1 (50-500 ng/ml)
HFSC cells [3] = assay: Differentiation of HFSC cells in serum-free medium (GD3/O4 staining, morphology)
Protocol: FIG. 7 depicts spontaneous differentiation of HFSC cells in serum-free medium in slides A-F. Slides A and B are phase contrast images taken with an inverted microscope showing the morphological change of HFSC cells (cell line #2b) at passage 12, day 9 (FIG. 7, slides A & B) after being cultured in HFSCM1 medium supplemented with 20 ng/ml PDGF-AA, 10 ng/ml bFGF, 10 ng/ml IGF-1 and 50 μM 1-thioglycerol (FIG. 7, slide A) or without 1-thioglycerol (FIG. 7, slide B). HFSC cells were differentiated spontaneously without replenishing bFGF between changing medium. Even in the same condition, HFSC cells didn't differentiate if bFGF was replenished everyday and seemed to grow slowly. […] The ratio of oligodendrocyte progenitor cells and other cell types to differentiated cells (oligodendrocyte progenitor cells plus other cell types) were calculated and shown in FIG. 15, slide E. Oligodendrocyte progenitor cell was 99.1%±0.56% of differentiated cells whereas other cell types were 0.9%±0.56% of differentiated cells. […]

insulin-like growth factor-1 [IGF-1]
concentration at which expansion rate / response is saturated (HFSC cells [1]): 40 ng/mL | differentiated cells seen (HFSC cells [2]): around 1%

basic fibroblast growth factor [bFGF]
concentration at which expansion rate / response is saturated (HFSC cells [1]): 20 ng/mL

Nc1ncnc2c1nc(Sc1ccc(Cl)cc1)n2[C@@H]1O[C@@H]2COP(=O)(O)O[C@H]2[C@H]1O [pCPT-cAMP, reference compound]
induction of differentiation (HFSC cells [3]; 100 μM, high density (3×10^4 cells/cm^2)): could induce differentiation

platelet derived growth factor-AA [PDGF-AA]
effect on expansion rate (HFSC cells [1]): very little positive effect | concentration at which expansion rate / response is saturated (HFSC cells [1]): 10 to 20 ng/mL | effect on spontaneous differentiation (HFSC cells [3]; 40 ng/ml or higher PDGF-AA): blocked to differentiate

CC(=O)N[C@@H](CS)C(=O)O [N-acetyl-cysteine, reference compound]
effect on cell status (vacuoles, cell number) (HFSC cells [1]): seemed to improve the cells' status

OCCS [β-mercaptoethanol, reference compound]
effect on cell status (vacuoles, cell number) (HFSC cells [1]): seemed to improve the cells' status

OCC(O)CS (stereo not shown) [1-thioglycerol, reference compound]
effect on expansion rate (HFSC cells [1]): very little positive effect
